Results as given in patent US20240101570A1 (AMGEN INC., priority 2020, published 2024).

Assays:
HCT116 MTAP null cells = assay: HCT116 MTAP null cell proliferation / viability (CellTiter-Glo, 6 days); assay type: cell-based; details: HCT116-MTAP null, 144 h, HCT116 MTAP null cells, 6 days, CellTiter-Glo; read-out: HCT-116 MTAP null IC50
How it was run: (§1)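 IC50 values derive from sigmoidal dose-response fits, some with Hill slope fixed at −1 and top constrained to 100%, others from 4-parameter logistic models. They reflect CellTiter-Glo viability after 6 days of compound exposure at up to 10 or 50 μM.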

HCT116 WT cells = assay: HCT116 WT cell proliferation / viability (CellTiter-Glo, 6 days); assay type: cell-based; details: Homo sapiens, HCT-116, 144 h, HCT116 WT cells, 6 days, CellTiter-Glo; read-out: HCT-116 WT IC50
How it was run: as §1

SMILES | IC50 (HCT116 MTAP null cells) [nM] | IC50 (HCT116 WT cells) [nM]
CCN(Cc1ccc(C(F)(F)F)cn1)C(=O)c1cc2c3c(c(N)nc2cc1F)[C@@H](C)OC3 [Example 556, (3R)-4-amino-N-ethyl-7-fluoro-3-methyl-N-((5-(trifluoromethyl)-2-pyridinyl)methyl)-1,3-dihydrofuro[3,4-c]quinoline-8-carboxamide] | 14 | 458
CCOc1ccc(CN(CC2CC2)C(=O)c2cc3c(cc2F)nc(N)c2c3cnn2C)nn1 [Example 765, 4-amino-N-(cyclopropylmethyl)-N-((6-ethoxy-3-pyridazinyl)methyl)-7-fluoro-3-methyl-3H-pyrazolo[3,4-c]quinoline-8-carboxamide] | 49 | 1980
C[C@H]1OCc2c1c(N)nc1cc(F)c(C(=O)N(C)[C@@H](C)c3ccc(C(F)(F)F)cc3)cc21 (single isomer, unassigned) [Example 859] | 583 | 17500
CC(C)N(Cc1ccc(C2CC2)nc1)C(=O)c1cc2c3c(c(N)nc2cc1Cl)COC3 [Example 401, 4-amino-7-chloro-N-((6-cyclopropyl-3-pyridinyl)methyl)-N-(2-propanyl)-1,3-dihydrofuro[3,4-c]quinoline-8-carboxamide] | 84 | 3080
CCN(C(=O)c1cc2c3c(c(N)nc2cn1)COC3)[C@@H](c1ccc(C(F)(F)F)nn1)C1CC1 [Example 767, 4-amino-N-((R)-cyclopropyl(6-(trifluoromethyl)-3-pyridazinyl)methyl)-N-ethyl-1,3-dihydrofuro[3,4-c][1,7]naphthyridine-8-carboxamide] | 2270 | > 50000
Nc1nc2ccc(C(=O)N(Cc3ccc(N4CCOCC4)nn3)CC3CC3)cc2c2c1COC2 [Example 452, 4-amino-N-(cyclopropylmethyl)-N-((6-(4-morpholinyl)-3-pyridazinyl)methyl)-1,3-dihydrofuro[3,4-c]quinoline-8-carboxamide] | 47 | 1570
C[C@H]1OCc2c1c(N)nc1ccc(C(=O)N(Cc3ccc(C(F)(F)F)cn3)CC(F)(F)F)cc21 [Example 481, (3R)-4-amino-3-methyl-N-(2,2,2-trifluoroethyl)-N-((5-(trifluoromethyl)-2-pyridinyl)methyl)-1,3-dihydrofuro[3,4-c]quinoline-8-carboxamide] | 74 | 5710
Nc1nc2cc(F)c(C(=O)N(Cc3ccc(C(F)(F)F)cn3)C3CC3)cc2c2c1COC2 [Example 369, 4-amino-N-cyclopropyl-7-fluoro-N-((5-(trifluoromethyl)-2-pyridinyl)methyl)-1,3-dihydrofuro[3,4-c]quinoline-8-carboxamide] | 124 | 5040
CCOc1ccc(CN(C(=O)c2ccc3nc(N)c4c(cnn4C)c3c2)[C@H](C)c2ncccn2)nn1 [Example 758, 4-amino-N-((6-ethoxy-3-pyridazinyl)methyl)-3-methyl-N-((1R)-1-(2-pyrimidinyl)ethyl)-3H-pyrazolo[3,4-c]quinoline-8-carboxamide] | 37 | 658
CC1OCc2c1c(N)nc1ccc(C(=O)N(Cc3ccc(C(F)(F)F)cn3)C3CC3C3CC3)cc21 (centres unmarked) [Example 904, N-([1,1′-bi(cyclopropan)]-2-yl)-4-amino-3-methyl-N-((5-(trifluoromethyl)pyridin-2-yl)methyl)-1,3-dihydrofuro[3,4-c]quinoline-8-carboxamide] | 31 | 1600
CC(C)N(Cc1ccc(C(F)(F)F)cc1)C(=O)c1cc2c3c(c(N)nc2cn1)COC3 [Example 733, 4-amino-N-(2-propanyl)-N-(4-(trifluoromethyl)benzyl)-1,3-dihydrofuro[3,4-c][1,7]naphthyridine-8-carboxamide] | 290 | 6300
CCOc1ccc(CN(C(=O)c2cc3c4c(c(N)nc3cn2)[C@@H](C)OC4)[C@H](C)COC)nn1 [Example 397, (3R)-4-amino-N-((6-ethoxy-3-pyridazinyl)methyl)-N-((2R)-1-methoxy-2-propanyl)-3-methyl-1,3-dihydrofuro[3,4-c][1,7]naphthyridine-8-carboxamide] | 55 | 1100
CCN(Cc1ccc(C(F)(F)F)cn1)C(=O)c1ccc2nc(N)c3c(c2c1)COC3C (centres unmarked) [Example 930, 4-amino-N-ethyl-3-methyl-N-((5-(trifluoromethyl)pyridin-2-yl)methyl)-1,3-dihydrofuro[3,4-c]quinoline-8-carboxamide] | 61 | > 10000
CCN(Cc1ccc(C(F)(F)F)cn1)C(=O)c1ccc2nc(N)c3ccncc3c2c1 [Example 428, 5-amino-N-ethyl-N-((5-(trifluoromethyl)-2-pyridinyl)methyl)benzo[c][2,6] naphthyridine-9-carboxamide] | 101 | 1250
CN(Cc1ccc(C(F)(F)F)cn1)C(=O)c1cc2c(cc1C(F)(F)F)nc(N)c1cnn(C)c12 [Example 810, 4-amino-N,1-dimethyl-7-(trifluoromethyl)-N-((5-(trifluoromethyl)-2-pyridinyl)methyl)-1H-pyrazolo[4,3-c]quinoline-8-carboxamide] | 226 | 13800
C[C@@H](c1ccc(C(F)(F)F)cn1)N(C)C(=O)c1cc2c(cc1F)nc(N)c1cnn(C)c12 (single isomer, unassigned) [Example 603] | 276 | 11800
CC(C)CN(Cc1ccc(C(F)(F)F)cn1)C(=O)c1ccc2nc(N)c3c(c2c1)COC3 [Example 613, 4-amino-N-(2-methylpropyl)-N-((5-(trifluoromethyl)-2-pyridinyl)methyl)-1,3-dihydrofuro[3,4-c]quinoline-8-carboxamide] | 23 | 761
CC(C)N(C(=O)c1cc2c3c(c(N)nc2cn1)COC3)[C@@H](C)c1ccc(C(F)(F)F)cn1 (single isomer, unassigned) [Example 847] | 1860 | 36000
C[C@H](c1ccc(-c2ccc(C(F)(F)F)cc2)nn1)N(C)C(=O)c1ccc2nc(N)c3cnn(C)c3c2c1 [Example 532, 4-amino-N,1-dimethyl-N-((1R)-1-(6-(4-(trifluoromethyl)phenyl)-3-pyridazinyl)ethyl)-1H-pyrazolo[4,3-c]quinoline-8-carboxamide] | 37 | 2030
Nc1nc2ncc(C(=O)N(Cc3ccc(C(F)(F)F)cn3)CC3CC3)cc2c2c1COC2 [Example 321, 4-amino-N-(cyclopropylmethyl)-N-((5-(trifluoromethyl)-2-pyridinyl)methyl)-1,3-dihydrofuro[3,4-c][1,8]naphthyridine-8-carboxamide] | 226 | 3790
COC[C@@H](C)N(Cc1ccc(Br)nn1)C(=O)c1cnc2nc(N)c3c(c2c1)COC3 [Example 681, 4-amino-N-((6-bromo-3-pyridazinyl)methyl)-N-((2R)-1-methoxy-2-propanyl)-1,3-dihydrofuro[3,4-c][1,8]naphthyridine-8-carboxamide] | 367 | 6490
C[C@H]1OCc2c1c(N)nc1ccc(C(=O)N(C)Cc3ccc(C#N)cn3)cc21 [Example 386, (3R)-4-amino-N-((5-cyano-2-pyridinyl)methyl)-N,3-dimethyl-1,3-dihydrofuro[3,4-c]quinoline-8-carboxamide] | 455 | 30300
CC(c1ncc(F)cn1)N(CCOC(F)(F)F)C(=O)c1cc2c3c(c(N)nc2cc1F)COC3 (racemic) [Example 725, 4-amino-7-fluoro-N-((1R)-1-(5-fluoro-2-pyrimidinyl)ethyl)-N-(2-(trifluoromethoxy)ethyl)-1,3-dihydrofuro[3,4-c]quinoline-8-carboxamide and 4-amino-7-fluoro-N-((1S)-1-(5-fluoro-2-pyrimidinyl)ethyl)-N-(2-(trifluoromethoxy)ethyl)-1,3-dihydrofuro[3,4-c]quinoline-8-carboxamide] | 854 | > 50000
Cn1ncc2c3cc(C(=O)N(Cc4ccc(C(F)(F)F)nn4)CC4CC4)c(F)cc3nc(N)c21 [Example 731, 4-amino-N-(cyclopropylmethyl)-7-fluoro-3-methyl-N-((6-(trifluoromethyl)-3-pyridazinyl)methyl)-3H-pyrazolo[3,4-c]quinoline-8-carboxamide] | 47 | 2090
CC(c1ccc(C(F)(F)F)cn1)N(C)C(=O)c1cnc2nc(N)c3c(c2c1)COC3 (racemic) [Example 700, 4-amino-N-methyl-N-((1R)-1-(5-(trifluoromethyl)-2-pyridinyl)ethyl)-1,3-dihydrofuro[3,4-c][1,8]naphthyridine-8-carboxamide and 4-amino-N-methyl-N-((1S)-1-(5-(trifluoromethyl)-2-pyridinyl)ethyl)-1,3-dihydrofuro[3,4-c][1,8]naphthyridine-8-carboxamide] | 1100 | > 10000
CC(C)N(C(=O)c1cc2c3c(c(N)nc2cn1)COC3)[C@H](C)c1ccc(C(F)(F)F)cn1 (single isomer, unassigned) [Example 848] | 453 | 11400
Nc1nc2cnc(C(=O)N(Cc3ccc(C(F)(F)F)nn3)C3CC(F)(F)C3)cc2c2c1COC2 [Example 668, 4-amino-N-(3,3-difluorocyclobutyl)-N-((6-(trifluoromethyl)-3-pyridazinyl)methyl)-1,3-dihydrofuro[3,4-c][1,7]naphthyridine-8-carboxamide] | 304 | > 10000
Cc1cc2nc(N)c3c(cnn3C)c2cc1C(=O)N(C)Cc1ccc(C(F)(F)F)cn1 [Example 520, 4-amino-N,3,7-trimethyl-N-((5-(trifluoromethyl)-2-pyridinyl)methyl)-3H-pyrazolo[3,4-c]quinoline-8-carboxamide] | 149 | 9060
